# Measured values: ChEMBL document CHEMBL3217477, “Synthesis and biological evaluation of substituted - and -2,3-dihydrofuran naphthoquinones as potent anticandidal agents” (Medchemcomm, 2010)
# How the values were obtained:
# [1] = system: Candida albicans; assay: Antifungal activity against Candida albicans assessed as growth inhibition at 250 ug/mL after 24 hrs by hole plate diffusion method; format: functional; settings: read-out: IZ
# [2] = Hemolytic activity in Swiss mouse erythrocytes at 50 ug/mL after 1 hr by spectrophotometric analysis relative to control; format: ADME, cell-based, Erythrocyte; settings: read-out: Activity
# [3] = system: Pichia kudriavzevii; assay: Antifungal activity against Candida krusei assessed as growth inhibition after 24 hrs by microbroth dilution method; format: functional
# [4] = system: Kluyveromyces marxianus; assay: Antifungal activity against Candida kefyr assessed as growth inhibition at 250 ug/mL after 24 hrs by hole plate diffusion method; format: functional; settings: read-out: IZ
# [5] = system: Candida tropicalis; assay: Antifungal activity against Candida tropicalis assessed as growth inhibition at 250 ug/mL after 24 hrs by hole plate diffusion method; format: functional; settings: read-out: IZ
# [6] = system: Candida dubliniensis; assay: Antifungal activity against Candida dubliniensis assessed as growth inhibition after 24 hrs by microbroth dilution method; format: functional
# [7] = system: Candida tropicalis; assay: Antifungal activity against Candida tropicalis assessed as growth inhibition after 24 hrs by microbroth dilution method; format: functional
# [8] = system: Candida albicans; assay: Antifungal activity against Candida albicans ATCC 90028 assessed as growth inhibition after 24 hrs by microbroth dilution method; format: functional; settings: ATCC 90028, 24 h
# [9] = system: Kluyveromyces marxianus; assay: Antifungal activity against Candida kefyr assessed as growth inhibition after 24 hrs by microbroth dilution method; format: functional
# [10] = Cytotoxicity against mouse NIH/3T3 cells assessed as dead cells at 12.5 ug/mL after 72 hrs by Alamar Blue assay relative to control; format: cell-based; settings: nih3t3, 72 h
# [11] = system: Candida dubliniensis; assay: Antifungal activity against Candida dubliniensis assessed as growth inhibition at 250 ug/mL after 24 hrs by hole plate diffusion method; format: functional; settings: read-out: IZ
# [12] = system: Candida parapsilosis; assay: Antifungal activity against Candida parapsilosis assessed as growth inhibition after 24 hrs by microbroth dilution method; format: functional; settings: Lodderomyces parapsilosis
# [13] = system: Pichia kudriavzevii; assay: Antifungal activity against Candida krusei assessed as growth inhibition at 250 ug/mL after 24 hrs by hole plate diffusion method; format: functional; settings: read-out: IZ
# [14] = system: Candida albicans; assay: Antifungal activity against Candida albicans assessed as growth inhibition after 24 hrs by microbroth dilution method; format: functional
# [15] = system: Candida parapsilosis; assay: Antifungal activity against Candida parapsilosis assessed as growth inhibition at 250 ug/mL after 24 hrs by hole plate diffusion method; format: functional; settings: Lodderomyces parapsilosis, read-out: IZ
Compound,zone of inhibition at 250 µg/mL [1],"hemolysis at 1 h, 50 ug/mL [2]",MIC [3],zone of inhibition at 250 µg/mL [4],zone of inhibition at 250 µg/mL [5],MIC [6],MIC [7],MIC [8],MIC [9],mortality [10],zone of inhibition at 250 µg/mL [11],MIC [12],zone of inhibition at 250 µg/mL [13],MIC [14],zone of inhibition at 250 µg/mL [15]
CC1(C)CC2=C(O1)C(=O)c1ccccc1C2=O,21.3 mm,2.1%,13.4 µM,18.4 mm,5.63 mm,13.7 µM,3.42 µM,54.8 µM,27.4 µM,20%,15.2 mm,110 µM,14.6 mm,0.54 µM,9.29 mm
O=C1C2=C(OC(c3ccc(Cl)cc3)C2)C(=O)c2ccccc21 (configuration not stated),1.5 mm,1.16%,80.5 µM,5.27 mm,2.49 mm,40.2 µM,40.2 µM,80.5 µM,80.5 µM,0%,0 mm,40.2 µM,6.14 mm,10.1 µM,0 mm
Cc1ccc(C2CC3=C(O2)C(=O)c2ccccc2C3=O)cc1 (configuration not stated),10.4 mm,-0.786%,86.2 µM,4.27 mm,7.28 mm,43.1 µM,43.1 µM,86.2 µM,86.2 µM,0%,2.75 mm,43.1 µM,4.94 mm,43.1 µM,0 mm
Cc1ccc(C2CC3=C(O2)C(=O)c2ccccc2C3=O)c(C)c1 (configuration not stated),1.38 mm,-0.217%,82.1 µM,0 mm,6.42 mm,41.1 µM,41.1 µM,82.1 µM,82.1 µM,0%,2.02 mm,82.1 µM,9.87 mm,41.1 µM,0 mm
O=C1C(=O)c2ccccc2C2=C1CC1(C=CC=C1)O2,5.85 mm,-1.63%,13.1 µM,10.7 mm,7.19 mm,6.55 µM,3.27 µM,13.1 µM,26.2 µM,8%,18.5 mm,13.1 µM,8.8 mm,6.55 µM,6.14 mm
O=C1C(=O)c2ccccc2C2=C1CC(c1ccc(Cl)cc1)O2 (configuration not stated),1.5 mm,-1.51%,40.2 µM,1.96 mm,2.21 mm,40.2 µM,20.1 µM,80.5 µM,5.02 µM,0%,9.01 mm,10.1 µM,5.65 mm,40.2 µM,6.11 mm
CC1(C)CC2=C(O1)c1ccccc1C(=O)C2=O [NOR-BETA-LAPACHONE],1.64 mm,-2.4%,110 µM,8.27 mm,4.78 mm,6.84 µM,54.8 µM,110 µM,110 µM,11%,0.1 mm,27.4 µM,9.01 mm,54.8 µM,7.41 mm
O=C1C(=O)c2ccccc2C2=C1CC(c1ccc(F)cc1)O2 (configuration not stated),1.37 mm,-0.202%,10.6 µM,8.96 mm,8.59 mm,42.5 µM,42.5 µM,85 µM,42.5 µM,0%,1.7 mm,42.5 µM,9.8 mm,42.5 µM,8.12 mm
CC1(c2ccccc2)CC2=C(O1)C(=O)c1ccccc1C2=O (configuration not stated),16.1 mm,4.54%,172 µM,7.42 mm,3.83 mm,45.2 µM,45.2 µM,45.2 µM,90.5 µM,0%,4.63 mm,45.2 µM,7.05 mm,45.2 µM,0 mm
O=C1C(=O)c2ccccc2C2=C1CC(c1ccccc1)O2 (configuration not stated),7.37 mm,1.98%,2.82 µM,10.8 mm,5.7 mm,5.65 µM,11.3 µM,90.5 µM,5.65 µM,0%,11.9 mm,22.6 µM,12 mm,45.2 µM,7.22 mm
Cc1ccc(C2CC3=C(O2)c2ccccc2C(=O)C3=O)c(C)c1 (configuration not stated),2.93 mm,4.37%,5.13 µM,9.28 mm,7.51 mm,41.1 µM,41.1 µM,82.1 µM,41.1 µM,17%,4.19 mm,10.3 µM,10.8 mm,82.1 µM,9 mm
O=C1C(=O)c2ccccc2C2=C1CC(c1ccc(Br)cc1)O2 (configuration not stated),6.17 mm,4.59%,4.39 µM,8.68 mm,0 mm,2.19 µM,8.79 µM,70.4 µM,4.39 µM,0%,9.23 mm,8.79 µM,11.3 mm,35.2 µM,7.75 mm
CC1(c2ccccc2)CC2=C(O1)c1ccccc1C(=O)C2=O (configuration not stated),8.41 mm,-1.2%,22.6 µM,10.1 mm,3.48 mm,5.65 µM,11.3 µM,45.2 µM,11.3 µM,0%,12.9 mm,45.2 µM,8.52 mm,45.2 µM,7.34 mm
OC(Cn1cncn1)(Cn1cncn1)c1ccc(F)cc1F [FLUCONAZOLE],13 mm,,104 µM,21.2 mm,15 mm,1.63 µM,313 µM,1.63 µM,1.63 µM,,12.8 mm,1.63 µM,9.64 mm,1.63 µM,10.4 mm
O=C1C2=C(OC(c3ccccc3)C2)C(=O)c2ccccc21 (configuration not stated),17 mm,-1.44%,90.5 µM,1.96 mm,7.7 mm,14.9 µM,45.2 µM,90.5 µM,90.5 µM,0%,4.3 mm,90.5 µM,8.29 mm,11.3 µM,6.88 mm
Cc1ccc(C2CC3=C(O2)c2ccccc2C(=O)C3=O)cc1 (configuration not stated),0.39 mm,5.28%,5.39 µM,0 mm,2.26 mm,2.69 µM,43.1 µM,10.8 µM,5.39 µM,0%,6.44 mm,10.8 µM,5.77 mm,10.8 µM,0 mm
COc1cccc2c1C(=O)c1c(O)c3c(c(O)c1C2=O)C[C@@](O)(C(=O)CO)C[C@@H]3O[C@H]1C[C@H](N)[C@H](O)[C@H](C)O1 [DOXORUBICIN],,,,,,,,,,36%,,,,,
CCC(C)n1ncn(-c2ccc(N3CCN(c4ccc(OCC5COC(Cn6cncn6)(c6ccc(Cl)cc6Cl)O5)cc4)CC3)cc2)c1=O (configuration not stated) [ITRACONAZOLE],23.1 mm,,0.7 µM,30.9 mm,23.6 mm,0.02 µM,0.17 µM,0.17 µM,0.08 µM,,19.4 mm,0.02 µM,30.3 mm,4.42 µM,26 mm
